Bridge positions count the residues as written; N and C are the ends. Square brackets hold non-standard residues; d marks the D form. Peptide text beside a SMILES is read from it. R8 = C=CCCCCCC[C@@](C)(N)C(=O)O; S5 = C=CCCC[C@](C)(N)C(=O)O; Nle = CCCC[C@H](N)C(=O)O
Tests used:
[1] = molecular target: T1, flag-tagged HIF1α (AA 786-826) / His6-tagged p300 (AA 323-423) complex (Homo sapiens, UniProt Q09472); test: HIF1α p300 displacement assay (TR FRET, +CHAPS); format: binding; settings: read-out: IC50 (nM) (HIF1α_p300 Displacement + CHAPS)
T1 construct: His6-tagged p300 (AA 323-423); made in house; host or cells: E. coli (pETDuet vector)
Procedure, shortened: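 In this TR-FRET displacement format, peptides compete HIF1α C-terminal transactivation domain off p300-CH. They were preincubated 1 h at room temperature with 300 nM complex in HEPES pH 7.4/NaCl buffer with 7.5 mM CHAPS and 1 mM DTT. Anti-His-D2 (4 nM) and anti-Flag-K (0.5 μM) followed for 2 h, and a one-site fit of the fluorescence ratio gave IC50.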

HRE-bla ME-180 cells [2] = test: Reporter gene assay (HRE-bla ME-180 HIF reporter, GeneBLAzer); format: cell-based, human; settings: for EC50: 24 hour normoxia
Procedure, shortened: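 A FRET β-lactamase readout of HIF transcription was used. After compound treatment in 0.3% DMSO/media under normoxic conditions, 20 μl of 6× LiveBLAzer-FRET B/G (CCF4-AM) substrate was added. Plates sat 3 hr at room temperature in the dark and were read at 409 Ex/460Em and 409Ex/530Em on a Synergy 2. Inhibition was compared against DMSO vehicle controls, with chetomin as positive control.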

HRE-bla ME-180 cells [3] = test: Cell proliferation assay (viability, MTT, 1% FBS); format: cell-based, human
Procedure, shortened: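 Viable cell number was measured with the CellTiter 96 (MTT) kit after compounds were applied for a 16 h normoxic (21% O2) pretreatment, followed by further normoxic or hypoxic (1% O2) culture. Cells: 2×10^4 ME-180 per well, Opti-MEM + 1% FBS, 0.5% DMSO vehicle.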

SMILES	IC50 [1] [nM]	18 h Avg % max inhibition at top conc (HIF Rptr-24 hrs normoxia) (μM) (HRE-bla ME-180 cells [2])	EC50 (HRE-bla ME-180 cells [2]) [µM]	Viability 1% FBS AVG (MTT V3-24 hr Normoxia) (μM) (HRE-bla ME-180 cells [3])
CCCC[C@H](NC(=O)[C@H](CCC(=O)O)NC(=O)[C@]1(C)CCCC=CCCCCCC[C@@](C)(NC(=O)[C@H](CCC(=O)O)NC(=O)[C@H](CC(=O)O)NC(=O)[C@@H](NC(=O)[C@H](CC(N)=O)NC(=O)[C@@H](NC(=O)[C@]2(C)CCCC=CCCCCCC[C@@](C)(NC(=O)[C@H](CCC(=O)O)NC(=O)CNC(=O)[C@H](CCC(N)=O)NC(=O)[C@H](CC(C)C)NC(=O)[C@H](CC(C)C)NC(C)=O)C(=O)N[C@@H](CC(C)C)C(=O)N[C@@H](CC(C)C)C(=O)N[C@@H](CCCNC(=N)N)C(=O)N[C@@H](C)C(=O)N[C@@H](CC(C)C)C(=O)N[C@@H](CC(=O)O)C(=O)N2)C(C)C)[C@@H](C)CC)C(=O)N[C@@H](C(C)C)C(=O)N[C@@H](CC(C)C)C(=O)N[C@@H](CCCC)C(=O)N[C@@H](CO)C(=O)N[C@@H](CC(C)C)C(=O)N[C@@H](C(C)C)C(=O)N1)C(=O)NCC(N)=O [SP-313] (Ac-LLQGE[R8]LLRALD[S5]VNIDE[R8]VL[Nle]SLV[S5]E[Nle]G-NH2; staple 6-13, 19-26)	200 to 400	+ (<10: +)	> 30	++++ (≥30: ++++)
CCCC[C@H](NC(=O)[C@H](CCC(=O)O)NC(=O)[C@]1(C)CCCC=CCCCCCC[C@@](C)(NC(=O)[C@H](C)NC(=O)[C@H](CC(=O)O)NC(=O)[C@@H](NC(=O)[C@H](CC(N)=O)NC(=O)[C@@H](NC(=O)[C@H](CCC(N)=O)NC(=O)[C@]2(C)CCCC=CCCC[C@](C)(NC(=O)[C@H](CC(C)C)NC(=O)[C@H](CCC(=O)O)NC(=O)[C@H](CCC(=O)O)NC(=O)CNC(=O)[C@H](CCC(N)=O)NC(=O)[C@H](CC(C)C)NC(=O)[C@H](CC(C)C)NC(C)=O)C(=O)N[C@@H](CCCNC(=N)N)C(=O)N[C@@H](C)C(=O)N[C@@H](CC(C)C)C(=O)N2)C(C)C)[C@@H](C)CC)C(=O)N[C@@H](C(C)C)C(=O)N[C@@H](CC(C)C)C(=O)N[C@@H](CCCC)C(=O)N[C@@H](CO)C(=O)N[C@@H](CC(C)C)C(=O)N[C@@H](C(C)C)C(=O)N1)C(N)=O [SP-362] (Ac-LLQGEEL[S5]RAL[S5]QVNIDA[R8]VL[Nle]SLV[S5]E[Nle]-NH2; staple 8-12, 19-26)	400 to 700	++++ (≥50: ++++)	5 to 15	++++ (≥30: ++++)
CCCC[C@H](NC(=O)[C@H](Cc1ccccc1)NC(=O)[C@@H](NC(=O)[C@H](CCC(=O)O)NC(=O)[C@H](CCC(=O)O)NC(=O)[C@H](CC(=O)O)NC(C)=O)C(C)C)C(=O)N[C@@]1(C)CCCC=CCCC[C@@](C)(C(=O)N[C@@H](CCCC)C(=O)N[C@@H](C)C(=O)N[C@@H](CC(C)C)C(=O)N[C@@H](CC(C)C)C(N)=O)NC(=O)[C@H]([C@@H](C)CC)NC(=O)[C@H](C(C)C)NC(=O)[C@H](CC(C)C)NC1=O [SP-244] (Ac-DEEVF[Nle][S5]LVI[S5][Nle]ALL-NH2; staple 7-11)	> 700	++++ (≥50: ++++)	≤ 5	++++ (≥30: ++++)
CC[C@H](C)[C@H](NC(=O)[C@H](Cc1ccccc1)NC(C)=O)C(=O)N[C@@H](CC(=O)O)C(=O)N[C@@H](CCC(=O)O)C(=O)N[C@]1(C)CCCCCCC=CCCC[C@@](C)(C(=O)N[C@@H](CCC(=O)O)C(=O)N[C@@H](CCSC)C(=O)N[C@@H](C)C(=O)N[C@@H](CC(C)C)C(=O)N[C@@H](CC(=O)O)C(N)=O)NC(=O)[C@H](C(C)C)NC(=O)[C@H](CC(C)C)NC(=O)[C@H](CO)NC(=O)[C@H](CCSC)NC(=O)[C@H](CC(C)C)NC(=O)[C@H](C(C)C)NC1=O [SP-176] (Ac-FIDE[R8]VLMSLV[S5]EMALD-NH2; staple 5-12)	> 700	++++ (≥50: ++++)	> 30	++++ (≥30: ++++)

Source: patent US20190225650A1, “PEPTIDOMIMETIC MACROCYCLES AND USE THEREOF IN REGULATING HIF1ALPHA” (AILERON THERAPEUTICS, INC., priority 2013, published 2019)
